According to patent publication EP0056458B1, “Nitrosourea derivatives, a process for preparing same and therapeutic compositions” (Tanabe Seiyaku Co., Ltd., priority 1981, dated 1982):
Marks after values point to notes of the source that are not given here.

Legend:
[1] = system: leukemic cells of L-1210; assay: Effect on the life span of mice implanted with leukemic cells of L-1210 (method B); type: in vivo; conditions: for ILS (%): Increase in Life Span; for 60-day survivors: mice survived for 60 days/mice used
Experimental: (B) Effect on the life span of mice implanted with leukemic cells of L-1210:
10^5 leukemic cells of L-1210were inoculated intraperitoneally into a group of four male mice (BDF1 mice, body weight: 19-23 g). A test compound was dissolved in a physiological saline solution and administered intraperitoneally to the mice. The administration of the test compound was begun 24 hours after the inoculation of the leukemic cells and performed once a day for 5 days. The survival days of the treated mice were observed.

[2] = system: Ehrlich ascites carcinoma; assay: Preventive effect against the growth of Ehrlich ascites tumor (method A); type: in vivo, mice; conditions: for Therapeutic index: M. T. D./M. E. D.; for inhibition in vivo at 0.097 mg/kg/day: dose 0.097 mg/kg/day i.p. x 5 days; for inhibition in vivo at 0.195 mg/kg/day: dose 0.195 mg/kg/day i.p. x 5 days; for inhibition in vivo at 0.39 mg/kg/day: dose 0.39 mg/kg/day i.p. x 5 days; for inhibition in vivo at 1.56 mg/kg/day: dose 1.56 mg/kg/day i.p. x 5 days; for inhibition in vivo at 6.25 mg/kg/day: dose 6.25 mg/kg/day i.p. x 5 days; for minimal effective dose: minimum effective dose which shows 100% inhibition for the growth of the ascites tumor, dose column in mg/kg/day, read-out: MED; for Toxic: group of five mice; for inhibition in vivo at 0.19 mg/kg/day: dose 0.19 mg/kg/day i.p. x 5 days; for inhibition in vivo at 0.78 mg/kg/day: dose 0.78 mg/kg/day i.p. x 5 days; for inhibition in vivo at 3.12 mg/kg/day: dose 3.12 mg/kg/day i.p. x 5 days; for inhibition in vivo at 12.5 mg/kg/day: dose 12.5 mg/kg/day i.p. x 5 days
Experimental: (§1) (A) Preventive effect against the growth of Ehrlich ascites tumor:
(§2) 10^6 tumor cells of Ehrlich ascites carcinoma were inoculated intraperitoneally into a group of five female mice (ICR mice, body weight: 19-23 g). A test compound was dissolved in a physiological saline solution. (In the case where CCNU was employed as the test compound, said compound was suspended in a physiological saline solution containing 0.1% NIKKOL HCO-60 (trademark; a surface active agent manufactured by Nikko Chemicals Co. Ltd.)) and administered intraperitoneally to the mice. The administration of the test compound was begun 24 hours after the inoculation of the tumor cells and performed once a day for 5 days. The volume of ascites in the treated mice were measured after 7 days of the experiment.

[3] = as above; type: in vivo, mice; conditions: mouse, in vivo, ip; Maximum Tolerated Dose: maximum dose with 100% inhibition of Ehrlich ascites tumor growth without death of mice; dose column in mg/kg/day
Experimental: as §1, §2

[4] = system: tumor; assay: Anti-tumor activity compared with a compound of the invention (no method given); conditions: compared with a respective comparative compound according to the invention
[5] = dose 1.56 mg/kg/day i.p. x 5 days
[6] = dose 3.12 mg/kg/day i.p. x 5 days
[7] = dose 6.25 mg/kg/day i.p. x 5 days
[8] = dose 12.5 mg/kg/day i.p. x 5 days
[9] = T (treated mice), dose 3.12 mg/kg/day i.p. x 5 days
[10] = T (treated mice), dose 6.25 mg/kg/day i.p. x 5 days
[11] = T (treated mice), dose 12.5 mg/kg/day i.p. x 5 days
[12] = Mus musculus, Ehrlich, ip, 168 h, read-out: Inhibition ratio (%)
[13] = Mus musculus, Ehrlich, ip, 168 h, dose 25 mg/kg/day i.p. x 5 days, read-out: Inhibition ratio (%)
[14] = Mus musculus, Ehrlich, ip, 168 h
[15] = dose 50 mg/kg/day i.p. x 5 days
[16] = dose 25 mg/kg/day i.p. x 5 days
[17] = T (treated mice; figure after the slash is untreated control C), dose 25 mg/kg/day i.p. x 5 days
[18] = Mus musculus, Ehrlich, ip, 168 h, dose 50 mg/kg/day i.p. x 5 days, read-out: Inhibition ratio (%)
[19] = dose 100 mg/kg/day i.p. x 5 days

Structure (SMILES)	ILS (%) [1, 7]	ILS (%) [1, 8]	Mean survival days (T/C) [1, 10]	Mean survival days (T/C) [1, 11]	60-day survivors [1, 7]	60-day survivors [1, 8]	Therapeutic index [2]	inhibition in vivo at 0.097 mg/kg/day [2, 12]	inhibition in vivo at 0.195 mg/kg/day [2, 12]	inhibition in vivo at 0.39 mg/kg/day [2, 12]	inhibition in vivo at 1.56 mg/kg/day [2, 12]	inhibition in vivo at 6.25 mg/kg/day [2, 12]	inhibition in vivo at 25 mg/kg/day [2, 13]	minimal effective dose [2, 14]	Toxic [2, 15]	MTD at 168 h [3]	inhibition in vivo at 0.78 mg/kg/day [2, 12]	inhibition in vivo at 3.12 mg/kg/day [2, 12]	inhibition in vivo at 12.5 mg/kg/day [2, 12]	other results
CO[C@H]1O[C@H](CO)[C@@H](O)[C@H](N(C)C(=O)N(CCCl)N=O)[C@H]1O [Compound 3, 1 - (2 - chloroethyl) - 1 - nitroso - 3 - methyl - 3 - (methyl 3 - deoxy - a - D - glucopyranosid - 3 - yl)urea]	>614.3%	>614.3%	>60.0/8.4 days	>60.0/8.4 days	4/4	4/4	64	2.7%	81.1%	100%	100%	100%	100%	0.39 mg/kg/day	Toxic (1/5)*	25 mg/kg/day	–	–	–	ILS (%) [1, 5]: 70.2%; ILS (%) [1, 6]: >361.9%; Mean survival days (T/C) ([1]; T (treated mice), dose 1.56 mg/kg/day i.p. x 5 days): 14.3/8.4 days; Mean survival days (T/C) [1, 9]: >38.8/8.4 days; increase in the average life span ([1]; daily dose of 0.26 mg/kg intraperitoneally for five consecutive days): about 30%; 60-day survivors [1, 5]: 0/4; 60-day survivors [1, 6]: 2/4
O=NN(CCCl)C(=O)N[C@@H]1O[C@H](CO)[C@@H](O)[C@H](O)[C@H]1O [GANU, 1-(2-chloroethyl)-1-nitroso-3-β-(D-glucopyranosyl)urea, reference compound]	–	–	–	–	–	–	32	–	–	100%	–	–	–	0.39 mg/kg/day	–	12.5 mg/kg/day	100%	100%	100%	inhibition in vivo at 0.09 mg/kg/day ([2]; Mus musculus, Ehrlich, ip, 168 h, dose 0.09 mg/kg/day i.p. x 5 days, read-out: Inhibition ratio (%)): 4.2%; inhibition in vivo at 0.19 mg/kg/day [2, 12]: 79.2%; Toxic [2, 16]: Toxic (5/5)*
C#CCN(C(=O)N(CCCl)N=O)[C@@H]1[C@@H](O)[C@@H](OC)O[C@H](CO)[C@H]1O [Compound 5, 1 - (2 - chloroethyl) - 1 - nitroso - 3 - propargyl - 3 - (methyl 3 - deoxy - a - D - glucopyranosid - 3 - yl)urea]	–	–	–	–	–	–	32	–	–	35.1%	100%	100%	100%	0.78 mg/kg/day	Toxic (1/5)*	25 mg/kg/day	100%	–	–	–
O=C(NCCCl)N[C@H]1[C@H](O)[C@@H](CO)OC(O)[C@@H]1O (stereo partly drawn) [3 - [3 - (2 - chloroethyl)ureido] - 3 - deoxy - D - glucopyranose]	–	–	–	–	–	–	–	–	–	–	–	–	–	–	–	–	–	–	–	anti-tumor activity [4]: lower anti-tumor activity
C=CCN(C(=O)N(CCCl)N=O)[C@@H]1[C@@H](O)[C@@H](OC)O[C@H](CO)[C@H]1O [Compound 4, 1 - (2 - chloroethyl) -1 - nitroso - 3 - allyl - 3 - (methyl 3 - deoxy - α - D - glucopyranosid - 3 - yl)urea]	80.2%	>597.7%	15.5/8.6 days	>60.0/8.6 days	0/4	4/4	128	29.7%	100%	100%	100%	100%	100%	0.195 mg/kg/day	Toxic (3/5)*	25 mg/kg/day	–	–	–	ILS (%) [1, 16]: >496.5%; Mean survival days (T/C) [1, 17]: >51.3/8.6 days; 60-day survivors [1, 16]: 3/4
O=NN(CCCl)C(=O)NC1CCCCC1 [CCNU, 1-(2-chloroethyl)-1-nitroso-3-cyclohexylurea, reference compound]	–	–	–	–	–	–	4	–	–	–	–	33.3%	–	12.5 mg/kg/day	–	–	–	21.1%	100%	inhibition in vivo at 50 mg/kg/day [2, 18]: 100%; Toxic [2, 19]: Toxic (5/5)*
CO[C@H]1O[C@H](CO)[C@@H](O)[C@H](N(CC(C)C)C(=O)N(CCCl)N=O)[C@H]1O [Compound 2, 1 - (2 - chloroethyl) - 1 - nitroso - 3 - isobutyl - 3 - (methyl 3 - deoxy - a - D - glucopyranosid - 3 - yl)urea]	>597.7%	>597.7%	>60.0/8.6 days	>60.0/8.6 days	4/4	4/4	128	8.1%	100%	100%	100%	100%	100%	0.195 mg/kg/day	Toxic (1/5)*	25 mg/kg/day	–	–	–	ILS (%) [1, 6]: 57.0%; Mean survival days (T/C) [1, 9]: 13.5/8.6 days; 60-day survivors [1, 6]: 0/4
CCCCN(C(=O)N(CCCl)N=O)[C@@H]1[C@@H](O)[C@@H](OC)O[C@H](CO)[C@H]1O [Compound 1, 1 - (2 - chloroethyl) - 1 - nitroso - 3 - n - butyl - 3 - (methyl 3 - deoxy - a - D - glucopyranosid - 3 - yl)urea]	111.3%	>745.1%	15.0/7.1 days	>60.0/7.1 days	0/4	4/4	64	–	–	59.5%	–	–	–	0.78 mg/kg/day	–	50 mg/kg/day	100%	100%	100%	ILS (%) [1, 16]: >745.1%; Mean survival days (T/C) [1, 17]: >60.0/7.1 days; 60-day survivors [1, 16]: 4/4; inhibition in vivo at 0.19 mg/kg/day [2, 12]: 14.3%; inhibition in vivo at 50 mg/kg/day [2, 18]: 100%; Toxic [2, 19]: Toxic (4/5)*
COCCN(C(=O)N(CCCl)N=O)[C@@H]1[C@@H](O)[C@@H](OC)O[C@H](CO)[C@H]1O [Compound 6, 1 - (2 - chloroethyl) - 1 - nitroso - 3 - (2 - methoxyethyl) - 3 - (methyl 3 - deoxy - a - D - glucopyranosid - 3 - yl)urea]	–	–	–	–	–	–	128	0%	100%	100%	100%	100%	100%	0.195 mg/kg/day	Toxic (2/5)*	25 mg/kg/day	–	–	–	–
